Data as given in patent US10239873B2, “7-azaindole or 4,7-diazaindole derivatives as IKKϵ epsilon and TBK1 inhibitor and pharmaceutical composition comprising same” (GREEN CROSS CORPORATION, priority 2015, dated 2019).

What was measured:
TBK1 = biological target: T1, TBK1 (Homo sapiens, UniProt Q9UHD2); assay: ADP-Glo Kinase Assay, inhibition activity on TBK1; format: biochemical
T1 construct: purchased Promega (Invitrogen is also named in the same bracket) V4158; PR8031B; V3991 (not assigned to the two kinases)
T1 sequence (Q9UHD2 1-729): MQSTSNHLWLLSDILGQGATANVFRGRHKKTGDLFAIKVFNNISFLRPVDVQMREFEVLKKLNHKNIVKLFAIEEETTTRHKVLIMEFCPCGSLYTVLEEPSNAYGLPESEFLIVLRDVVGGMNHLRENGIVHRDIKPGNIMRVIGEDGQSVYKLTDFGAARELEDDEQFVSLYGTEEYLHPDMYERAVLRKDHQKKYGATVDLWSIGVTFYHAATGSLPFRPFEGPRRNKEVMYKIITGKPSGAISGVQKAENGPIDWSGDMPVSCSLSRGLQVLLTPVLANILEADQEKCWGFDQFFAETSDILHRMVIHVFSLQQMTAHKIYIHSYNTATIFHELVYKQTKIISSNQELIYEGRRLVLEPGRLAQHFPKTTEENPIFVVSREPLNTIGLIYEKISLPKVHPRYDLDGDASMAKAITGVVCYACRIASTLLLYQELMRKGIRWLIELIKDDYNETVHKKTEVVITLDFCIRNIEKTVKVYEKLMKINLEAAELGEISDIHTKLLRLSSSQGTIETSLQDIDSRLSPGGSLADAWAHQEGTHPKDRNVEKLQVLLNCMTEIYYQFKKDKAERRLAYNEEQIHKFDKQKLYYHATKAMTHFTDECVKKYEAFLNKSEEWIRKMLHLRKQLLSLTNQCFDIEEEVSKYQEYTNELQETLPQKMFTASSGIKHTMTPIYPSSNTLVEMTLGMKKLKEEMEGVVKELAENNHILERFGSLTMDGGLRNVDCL
Procedure, shortened: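 Kinase activity measured with the ADP-Glo luminescent ADP-detection kit per manufacturer's protocol, using IKKε or TBK1 kinase enzyme systems. Reaction buffer: 40 mM Tris (pH 7.5), 20 mM MgCl2, 0.1 mg/mL BSA; luminescence read on a luminometer.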

IKKε = biological target: T2, IKKε (Homo sapiens, UniProt Q14164); assay: ADP-Glo Kinase Assay, inhibition activity on IKKε; format: biochemical
T2 construct: purchased Promega and/or Invitrogen V4158; PR8031B; V3991 (not assigned to the two kinases)
T2 sequence (Q14164 1-716): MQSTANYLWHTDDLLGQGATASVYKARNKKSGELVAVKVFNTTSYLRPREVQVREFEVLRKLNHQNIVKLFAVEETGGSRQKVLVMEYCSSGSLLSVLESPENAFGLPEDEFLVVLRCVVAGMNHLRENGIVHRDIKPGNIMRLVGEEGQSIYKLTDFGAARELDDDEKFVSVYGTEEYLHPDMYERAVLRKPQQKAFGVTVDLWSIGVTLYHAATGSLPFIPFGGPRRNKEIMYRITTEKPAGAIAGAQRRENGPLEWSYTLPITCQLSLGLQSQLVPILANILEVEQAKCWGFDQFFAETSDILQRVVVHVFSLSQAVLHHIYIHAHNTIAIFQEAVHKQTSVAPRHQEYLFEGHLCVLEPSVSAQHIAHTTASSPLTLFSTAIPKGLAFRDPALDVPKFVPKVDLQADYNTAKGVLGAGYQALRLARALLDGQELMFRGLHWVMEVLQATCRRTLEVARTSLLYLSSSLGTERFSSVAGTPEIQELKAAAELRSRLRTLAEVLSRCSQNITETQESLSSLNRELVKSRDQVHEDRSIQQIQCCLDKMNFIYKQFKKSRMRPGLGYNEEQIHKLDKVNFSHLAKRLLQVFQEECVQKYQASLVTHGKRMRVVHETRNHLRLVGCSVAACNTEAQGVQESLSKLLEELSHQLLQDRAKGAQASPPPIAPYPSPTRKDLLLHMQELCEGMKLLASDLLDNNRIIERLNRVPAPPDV
Experimental: Inhibition activities on IKKϵ and TBK1 were evaluated using the compounds of Examples 1 to 250.
The inhibition activities on IKKϵ and TBK1 were measured by a luminometer, IKKϵ/TBK1 Kinase Enzyme System (Promega, Ca# V4158; Invitrogen, PR8031B, Promega, Ca# V3991) and ADP-Glo Kinase Assay using ADP-Glo™ Kinase Analysis Kit (Promega, Ca# V9101) and a kinase reaction buffer [40 mM Tris(pH 7.5), 20 mM MgCl2, 0.1 mg/mL BSA] in accordance with the manufacturer's protocol.

Row | Structure (SMILES) | IC50 (TBK1) [nM] | IC50 (IKKε) [nM]
1 | NS(=O)(=O)c1cccc(-c2cnc3[nH]cc(C4=CCN(C(=O)OC5CCCC5)CC4)c3c2)c1 [Example 145, Cyclopentyl 4-(5-(3-sulfamoylphenyl)-1H-pyrrolo[2,3-b]pyridin-3-yl)-5,6-dihydropyridine-1(2H)-carboxylate] | 33 | 120
2 | CC(=O)Nc1ccc(-c2cnc3[nH]cc(C4=CCN(C(=O)NC(C)C)CC4)c3c2)cc1 [Example 17, 4-(5-(4-Acetamidophenyl)-1H-pyrrolo[2,3-b]pyridin-3-yl)-N-isopropyl-3,6-dihydropyridine-1(2H)-carboxamide] | 7.8 | 21
3 | CCCN1CC=C(c2c[nH]c3ncc(-c4ccc(CN5CCOCC5)s4)cc23)CC1 [Example 7, 4-((5-(3-(1-Propyl-1,2,3,6-tetrahydropyridin-4-yl)-1H-pyrrolo[2,3-b]pyridin-5-yl)thiophen-2-yl)methyl)morpholine] | 1910 | 4250
4 | CCCN1CC=C(c2c[nH]c3ncc(-c4ccc(OC)c(OC)c4)cc23)CC1 [Example 4, 5-(3,4-Dimethoxyphenyl)-3-(1-propyl-1,2,3,6-tetrahydropyridin-4-yl)-1H-pyrrolo[2,3-b]pyridine] | 3230 | 5140
5 | CC(C)NC(=O)N1CC=C(c2c[nH]c3ncc(-c4cccc(CN5CCOCC5)c4)cc23)CC1 [Example 29, N-isopropyl-4-(5-(3-(morpholinomethyl)phenyl)-1H-pyrrolo[2,3-b]pyridin-3-yl)-5,6-dihydropyridine-1(2H)-carboxamide] | 16 | 29
6 | O=C(NC1CCCC1)N1CC=C(c2c[nH]c3ncc(-c4ccc(CN5CCOCC5)s4)cc23)CC1 [Example 72, N-cyclopentyl-4-(5-(5-(morpholinomethyl)thiophen-2-yl)-1H-pyrrolo[2,3-b]pyridin-3-yl)-5,6-dihydropyridine-1(2H)-carboxamide] | 28 | 38
7 | CC(C)NC(=O)N1CC=C(c2c[nH]c3ncc(-c4cc(CN5CCOCC5)ccc4F)cc23)CC1 [Example 21, 4-(5-(2-Fluoro-5-(morpholinomethyl)phenyl)-1H-pyrrolo[2,3-b]pyridin-3-yl)-N-isopropyl-3,6-dihydropyridine-1(2H)-carboxamide] | 71 | 160
8 | CC(C)NC(=O)N1CC=C(c2c[nH]c3ncc(-c4ccc(F)cc4)cc23)CC1 [Example 13, 4-(5-(4-Fluorophenyl)-1H-pyrrolo[2,3-b]pyridin-3-yl)-N-isopropyl-3,6-dihydropyridine-1(2H)-carboxamide] | 31 | 6800
9 | CC(C)NC(=O)N1CCC(c2c[nH]c3ncc(-c4ccc(C(=O)N5CCN(C)CC5)cc4)cc23)=CC1C (centres unmarked) [Example 89, N-isopropyl-2-methyl-4-(5-(4-(4-methylpiperazine-1-carbonyl)phenyl)-1H-pyrrolo[2,3-b]pyridin-3-yl)-5,6-dihydropyridine-1(2H)-carboxamide] | 2.8 | 3.3
10 | CCN1CC=C(c2c[nH]c3ncc(-c4ccc(CN5CCOCC5)s4)cc23)CC1 [Example 6, 4-((5-(3-(1-Ethyl-1,2,3,6-tetrahydropyridin-4-yl)-1H-pyrrolo[2,3-b]pyridin-5-yl)thiophen-2-yl)methyl)morpholine] | 4080 | 8900
11 | CC(C)NC(=O)N1CC=C(c2c[nH]c3ncc(-c4ccc(CN5CCOCC5)cc4F)cc23)CC1 [Example 20, 4-(5-(2-Fluoro-4-(morpholinomethyl)phenyl)-1H-pyrrolo[2,3-b]pyridin-3-yl)-N-isopropyl-3,6-dihydropyridine-1(2H)-carboxamide] | 32 | 46
12 | O=C(NC1CC1)N1CC=C(c2c[nH]c3ncc(-c4ccc(CN5CCOCC5)s4)cc23)CC1 [Example 48, N-cyclopropyl-4-(5-(5-(morpholinomethyl)thiophen-2-yl)-1H-pyrrolo[2,3-b]pyridin-3-yl)-5,6-dihydropyridine-1(2H)-carboxamide] | 8.2 | 10
13 | O=C(c1cccs1)N1CC=C(c2c[nH]c3ncc(Nc4ccc(CN5CCOCC5)cc4)cc23)CC1 [Example 250, (4-(5-(4-(morpholinomethyl)phenylamino)-1H-pyrrolo[2,3-b]pyridin-3-yl)-5,6-dihydropyridin-1(2H)-yl)(thiophen-2-yl)methanone] | 170 | 840
14 | CC(C)NC(=O)N1CC=C(c2c[nH]c3ncc(-c4ccc(CN5CCOCC5)o4)cc23)CC1 [Example 36, N-isopropyl-4-(5-(5-(morpholinomethyl)furan-2-yl)-1H-pyrrolo[2,3-b]pyridin-3-yl)-5,6-dihydropyridine-1(2H)-carboxamide] |  | 9.3
15 | CN1CCN(Cc2ccc(-c3cnc4[nH]cc(C5=CCN(C(=O)NC6CCOC6)CC5)c4c3)s2)CC1 (centres unmarked) [Example 83, 4-(5-(5-((4-Methylpiperazin-1-yl)methyl)thiophen-2-yl)-1H-pyrrolo[2,3-b]pyridin-3-yl)-N-(tetrahydrofuran-3-yl)-5,6-dihydropyridine-1(2H)-carboxamide] | 13 | 
16 | CS(=O)(=O)c1ccc(-c2cnc3[nH]cc(C4=CCN(C(=O)NC5CCCC5)CC4)c3c2)cc1 [Example 51, N-cyclopentyl-4-(5-(4-(methylsulfonyl)phenyl)-1H-pyrrolo[2,3-b]pyridin-3-yl)-5,6-dihydropyridine-1(2H)-carboxamide] | 51 | 
17 | COc1ccc(-c2cnc3[nH]cc(C4=CCN(C(=O)c5ccc(C)s5)CC4)c3c2)cc1OC [Example 210, (4-(5-(3,4-dimethoxyphenyl)-1H-pyrrolo[2,3-b]pyridin-3-yl)-5,6-dihydropyridin-1(2H)-yl)(5-methylthiophen-2-yl)methanone] | 3000 | 
18 | COc1ccc(-c2cnc3[nH]cc(C4=CCN(C(=O)NN5CCCC5)CC4)c3c2)cc1OC [Example 85, 4-(5-(3,4-Dimethoxyphenyl)-1H-pyrrolo[2,3-b]pyridin-3-yl)-N-(pyrrolidin-1-yl)-5,6-dihydropyridine-1(2H)-carboxamide 2,2,2-trifluoroacetate] | 110 | 
19 | CS(=O)(=O)c1ccc(-c2cnc3[nH]cc(C4=CCN(C(=O)OC5CCCC5)CC4)c3c2)cc1 [Example 173, Cyclopentyl 4-(5-(4-(methylsulfonyl)phenyl)-1H-pyrrolo[2,3-b]pyridin-3-yl)-5,6-dihydropyridine-1(2H)-carboxylate] | 120 | 
20 | CC(C)(C)OC(=O)N1CC=C(c2c[nH]c3ncc(-c4ccc(N5CCOCC5)nc4)cc23)CC1 [Example 157, tert-Butyl 4-(5-(6-morpholinopyridin-3-yl)-1H-pyrrolo[2,3-b]pyridin-3-yl)-5,6-dihydropyridine-1(2H)-carboxylate] | 360 | 
21 | CC(C)OC(=O)N1CC=C(c2c[nH]c3ncc(-c4ccc(S(N)(=O)=O)cc4)cc23)CC1 [Example 150, Isopropyl 4-(5-(4-sulfamoylphenyl)-1H-pyrrolo[2,3-b]pyridin-3-yl)-5,6-dihydropyridine-1(2H)-carboxylate] | 36 | 
22 | CC(C)(C)OC(=O)N1CC=C(c2c[nH]c3ncc(-c4cccc(C#N)c4)cc23)CC1 [Example 169, tert-Butyl 4-(5-(3-cyanophenyl)-1H-pyrrolo[2,3-b]pyridin-3-yl)-5,6-dihydropyridine-1(2H)-carboxylate] | 4500 | 
